The results in this text go back to patent US8986696B2, “Trans-capsular administration of p38 map kinase inhibitors into orthopedic joints” (DePuy Mitek, Inc., priority 2007, dated 2015).

Experiment [1] deals with IL-1β-stimulated GAG release, bovine chondrocyte pellets / ARC tissues. Kind of experiment: chondrocyte pellet culture model: GAG degradation. Type of experiment: cell-based. The following applies: for inhibition of GAG degradation: ARC tissues stimulated with IL-1β; for GAG Release: Pellet Assay. The essentials:
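Bovine chondrocyte pellets (calf articular cartilage, 2–3 weeks culture) or ARC tissue punches pretreated with compounds for 1 h at 37° C, then 3–5 days with or without 10 ng/ml IL-1β; DMSO ≤1%. Medium GAG measured by dimethylmethylene blue absorbance at 525 nm against chondroitin sulfate; reported as μg/ml or % total GAG released.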

The subject of experiment [2] is injured cartilage explants, GAG release. In words: drop tower design model: GAG release. Type of experiment: cell-based, bovine. The following applies: injured cartilage explants, inflammatory conditions. The text has this: The device comprises a vertical rail that guides a sliding weight from 0.1 kg to 3 kg directly onto a force transducer which is situated at the bottom of the device. A sphere-shaped 2 mm indenter resting on a specimen is located at the bottom of the vertical rail. The indenter is held by a stop screw. The specimen is rigidly attached to a tissue holder underneath the indenter, to avoid side movements, the specimen is rigidly attached to the tissue holder. In this manner, the force transducer transduces a force indirectly onto the specimen. Adjusting the weight of a mass and height from which the mass drops varies the magnitude of the intended impact. For example, a weight mass (e.g., […]) held by a weight holder can be released from a height of e.g., 36 cm and dropped onto the force transducer.
Samples for compound evaluation were tested using either of two different methods to induce inflammatory conditions. One method utilized media conditioned from peripheral blood mononuclear cells (PBMCs) stimulated with LPS (“+LPS”) or non-inflammatory media without LPS (“−LPS”). Another method utilized the absence or presence of a cocktail of cytokines.
In the first method, bovine or human PBMCs were freshly prepared using Ficoll gradient by Lampire Biological Laboratories, Inc. PBMCs in RPMI w/10% FCS at delivery were spun down at 1500 rpm for twenty minutes and the cell pellet was washed twice with 1×PBS to wash off the residual Ficoll. The cells were then resuspended at a density of 1×10^6/ml in RPMI supplemented with 10% FCS, 1× Antibiotics-Antimycotics. The suspension was divided into two aliquots. One aliquot was stimulated with 10 μg/ml of LPS and the other was not stimulated. Both aliquots were then incubated at 37° C., 5% CO2 for twenty-four to seventy-two hours. The conditioned media with or without LPS stimulation are collected, aliquoted, and stored in −80° C. for a maximum of three months. Each conditioned medium was assessed for levels of pro-inflammatory cytokines to ensure their secretion from PBMC. A representative cytokine, IL-6, was assayed by ELISA using a Human IL-6 Quantikine kit and it was shown that the LPS-stimulated medium had at least 10 ng/ml of IL-6, while IL-6 was undetectable in the unstimulated medium.
In the second method, the explants were cultured at 37° C., 5% CO2 either in stimulated or non-stimulated conditioned medium as described above or in defined medium containing DMEM supplemented with 1% FCS, 1× insulin-transferrin-sodium selenite media supplement and Antibiotics-Antimycotics in the presence or absence of a cocktail of cytokines containing 10 ng/ml of IL-1β, 100 ng/ml of TNFα and 5 ng/ml of IFN-γ. The compounds were solubilized in H2O, Ethanol or DMSO (10^−2 M) according to suppliers' instructions and further diluted with either conditioned medium stimulated with or without LPS to the required concentrations. DMSO concentrations in the culture media never exceeded 1%. This concentration of DMSO has no effect on cartilage proteoglycan metabolism in response to cytokines. The injured and noninjured cartilage explants were treated with compound-containing medium for three to five days. The specimens were first treated with compounds at desired concentrations at 37° C. for one hour and then incubated for three to five days in the absence or presence of the cocktail of cytokines. At the end of the incubation, media and cartilage samples were harvested and frozen for further analysis.
Glycosaminoglycan (GAG) levels in the culture media or cartilage were determined by measuring the amount of polyanionic material reacting with 1,9-dimethylmethylene blue (DME) as detected by absorbance at 525 nm, using shark chondroitin sulfate as a standard. The DME blue dye-binding solution was prepared by dissolving 16 mg of DME blue in a solution containing 0.304% glycine, 0.23% NaCl, 9.5 mM HCl, pH=3.0 with A525 equaling 0.31. […]

For the compound `CC(=O)Oc1cccc2c1C(=O)c1c(OC(C)=O)cc(C(=O)O)cc1C2=O` [Diacerein, reference compound], the “lowest concentration inhibiting proteoglycan degradation” value in experiment [1] (10 ng/ml IL-1β, five days) was no more than 0.054 µM. Moreover, the “GAG, inhibition of degradation/release” value in experiment [2] is reported as “completely inhibited”.

As to `OCCC#Cc1nc(-c2ccc(F)cc2)c(-c2ccncc2)n1CCCc1ccccc1` [JNJ 3026582 (RWJ 67657), 4-[4-(4-fluorophenyl)-1-(3-phenylpropyl)-5-(4-pyridinyl)-1H-imidazol-2-yl]-3-butyn-1-ol], the “inhibition of GAG degradation” value in experiment [1] is reported as “significant effect”. For the same compound, the “GAG, inhibition of degradation/release” value in experiment [2] is recorded as “little efficacy”.

On to `C[C@H](Nc1nccc(-c2c(-c3ccc(F)cc3)nc3nc(N)ccn23)n1)c1ccccc1` [JNJ 7583979 (RWJ 351958)], for which, in experiment [1], the “inhibition of GAG degradation” value is recorded as “significant effect”. In addition, the “GAG, inhibition of degradation/release” value in experiment [2] is on record as “little efficacy”; in experiment [2] (listed as JNK 7583979 (RWJ 351958)), “little”.

For the compound `CC(=O)N1CCN(c2c(-c3ccncc3)c(-c3ccc(F)cc3)c(C#N)n2C)CC1` [JNJ 17089540 (RWJ 669307)], in experiment [1], the “inhibition of GAG degradation” value is “little effect” and the “GAG Release” value is listed as “No effect”.

As for `CC(C(=O)O)c1ccc(C(=O)c2cccs2)cc1` (stereo not shown) [Suprofen, reference compound], in experiment [1], the “GAG Release” value is recorded as “No effect”.
